Test results reported in EP0421419A2, “Tocotrienols in the treatment of hypercholesterolemia, hyperlipidemia and thromboembolic disorders” (Bristol-Myers Squibb Company, priority 1989, dated 1991).

Tests used:
[1] = test system: Cholesterol Synthesis in HepG2 Cells; assay: HepG2 cell culture model, 14C-acetate incorporation assay; type: cell-based, human; settings: Homo sapiens, HepG2; 10 µM, about 4 hours; read-out: % Inhibition 14C-Ac
Method: HepG2 cells obtained from the American Type Culture Collection were routinely passaged in RPMI-1640 plus 10% fetal bovine serum (FBS) and were subcultured into 35 mm diameter wells for experiments. […] The LDS medium supplement was prepared according to Cham et al., J. Lipid Res., 17: 176-181, (1976). After about 16 hours in LDS containing media, test compounds were added in dimetthylsulfoxide vehicle (0.5% v/v final conc.) for the period of time indicated in the data (generally 4 hours). Cholesterol synthesis was then directly determined by the incorporation of 2-14C-acetate (1.8-3.0 mCi/mmol) into digitonin-precipitable sterols essentially as described for the rat hepatocyte methol above. Greater than 97% of the radiolabelled sterol isolated by this procedure was cholesterol as judged by HPLC. Percent inhibition was calculated from the average of duplicates or triplicates vs. controls receiving vehicle.
(§1) The human hepatoma HepG2 cell culture model was employed to compare the intrinsic activities of the tocotrienols. HepG2 cells were incubated with the indicated compounds for about 4 hours at 10 µM. Cholestrol synthesis was assayed by 14C-acetate incorporation and HMG-CoA reductase suppression was assayed in the isolated microsomal fraction. Cholesterol synthesis inhibition was assayed by 14C-acetate incorporation after preincubation of HepG2 cells with the compounds for about 2 hours or about 4 hours (Example IV). […] As the data in Figure 1 indicate, gamma-tocotrienol has an even greater relative potency compared to alpha-tocotrienol in the HepG2 cell model than in rat hepatocytes. The IC50s from these studies are given in Table 3, in which it can be seen that the intrinsic potency of gamma-tocotrienol is over 30-fold greater than that of alpha-tocotrienol.

[2] = test system: Lipid Metabolism; assay: Lipid metabolism in normocholesterolemic chickens fed compound in diet; type: in vivo; settings: 20 ppm in corn control diet, 4 weeks; for HDL/LDL: control 1.413; for LDL-Cholesterol: control 76.0(±5.3); for HDL-Cholesterol: control 107.4(±7.0); for Serum Triglycerides: control 115.2(±13); for Serum Cholesterol: control 197.0(±5.2)
Method: (§2) Natural gamma-tocotrienol and delta-tocotrienol were evaluated for their hypocholesterolemic action in normocholesterolemic chickens and genetically hypercholesterolemic swine. Newborn male chicks (10 for each group) were raised on a standard corn-soybean-based control diet for two weeks and then were switched to either control or experimental diets for four weeks. Drug treatment consisted of the addition of gamma-tocotrienol or delta-tocotrienol to the corn-soybean-based diet at a concentration of 20 ppm. At the end of the feeding period, all the birds were fasted (about 36 hours) and refed (about 48 hours) to induce cholesterolgenic emzymes prior to sacrifice. The specific activity of HMG-CoA reductase, total serum cholesterol levels, HDL/LDL cholesterol pools, and serum triglyceride levels were examined (Table 5).
Similarly, synthetic gamma-tocotrienol was administered to male chicks at 50 ppm using the same protocol except HMG-CoA reductase levels were not determined.

[3] = test system: HMG-CoA reductase; assay: HMG-CoA reductase specific activity in chickens fed compound in diet; type: in vivo; settings: 20 ppm in corn control diet, 4 weeks; for HMG-CoA Reductase Specific Acticity: 6-week old male chickens, control 1086.9(±114.0)
Method: as §2

[4] = test system: HMG-CoA reductase; assay: HepG2 cell culture model, HMG-CoA reductase suppression assay; type: cell-based, human; settings: 10 µM, about 4 hours, HepG2 cells
Method: HMG-CoA reductase suppression in HepG2 cells was conducted by growing cells in RPMT-1640 plus 10% FBS on 100 mm plates, and when cells reached approximately 75% confluency, inducing with LDS (as described above) for about 16 hours prior to assays. Compounds were added using dimethylsulfoxide vehicle (0.5% v/v, final) and after about 4 hours of incubation at 37°, cells were harvested by scraping. Cell pellets were rinsed and lysed by sonication in 1.7 ml cold 50 mM imidazole-HCL, pH 7.2, 50 mM NaCl, 10 mM EDTA, 10 mM EGTA, 5 mM DTT, and 40µM leupeptin). Lysates were centriguged at 150 x g and the supernatant was centrifuged at 100,000 x g in a Beckman airfuge to isolate the post-nuclear total membrane fraction. The membranes were resuspended in 50 mM imidazole-HCl, pH 7.2, 250 mM NaCl, 5 mM DTT, and 20µM leupeptin and used for the assay of HMG-CoA reductase activity by the radiochemical procedure as described previously by Parker et al., J. Biol. Chem., 264: 4877-4887, (1989). Values were normalized for protein content by the Lowry method as cited previously (ibid). HMG-CoA reductase percent suppression was calculated as the decrease in specific activity of HMG-CoA reductase for treated cells vs. controls receiving vehicle. Averages of duplicate cell determinations assayed in duplicate were taken.
as §1
The mechanism of cholesterol synthesis inhibition by tocotrienols involves down regulation of the limiting enzyme of sterol synthesis, HMG-CoA reductase. […] The suppression of HMG-CoA reductase protein expression by gamma-tocotrienol and delta-tocotrienol in HepG2 cells and in rat liver has been confirmed by immunoassy using the Western blot technique (data not shown).

[5] = test system: Lipid Metabolism; assay: Lipid metabolism in genetically hypercholesterolemic swine fed compound in diet; type: in vivo; settings: 4 weeks; for Serum Cholesterol: 75 ppm in corn-soybean meal control diet, control 406.7(±12.8); for HDL-Cholesterol [% of Control] / LDL-Cholesterol [% of Control] / Serum Cholesterol [% of Control] / Serum Triglycerides [% of Control] / HDL/LDL / HDL-Cholesterol / Serum Triglycerides / LDL-Cholesterol: 75 ppm in diet; for HDL/LDL: control 0.078; for HDL-Cholesterol: control 28.8(±1.1); for Serum Triglycerides: control 67.9(±2.8); for LDL-Cholesterol: control 367.1(±15.7)
Excerpt: Genetically hypercholesterolemic swine (3 per group) were fed for four weeks on either a standard corn-soybean-based control diet or an experimental diet. The experimental diet consisted of the standard mix containing either gamma-tocotrienol or delta-tocotrienol at 75 ppm. The same protocol used for the chicken study was used for the swine group, except HMG-CoA reductase levels were not determined in this case. […] The HDL/LDL atherogenic index as before improved dramatically with drug treatment (Table 7).

CC(C)=CCC/C(C)=C/CC/C(C)=C/CC[C@]1(C)CCc2cc(O)c(C)c(C)c2O1 [d-γ-tocotrienol]
inhibition at 10 µM [1]: 78%
HDL-Cholesterol [% of Control] [2]: 95.3%
LDL-Cholesterol [% of Control] [2]: 56.7%
Serum Cholesterol [% of Control] [2]: 76.4%
Serum Triglycerides [% of Control] [2]: 82.8%
HDL/LDL [2]: 1.669
LDL-Cholesterol [2]: 43.1(±8.3) mg/dl
HDL-Cholesterol [2]: 102.3(±4.5) mg/dl
Serum Triglycerides [2]: 95.4(±5.9) mg/dl
Serum Cholesterol [2]: 150.5(±4.2) mg/dl
HMG-CoA Reductase Specific Acticity [% of Control] [3]: 45.5%
HMG-CoA Reductase Specific Acticity [3]: 494.2(±22.9)
% Suppression HMG-CoA Reductase [4]: 64%
Serum Cholesterol [5]: 212.8(±9.0) mg/dl
HDL-Cholesterol [% of Control] [5]: 104.5%
LDL-Cholesterol [% of Control] [5]: 46.0%
Serum Cholesterol [% of Control] [5]: 51.3%
Serum Triglycerides [% of Control] [5]: 76.4%
HDL/LDL [5]: 0.172
HDL-Cholesterol [5]: 29.8(±2.9) mg/dl
Serum Triglycerides [5]: 50.9(±3.1) mg/dl
LDL-Cholesterol [5]: 172.8(±7.1) mg/dl

CC(C)=CCC/C(C)=C/CC/C(C)=C/CC[C@]1(C)CCc2cc(O)cc(C)c2O1 [d-δ-tocotrienol]
inhibition at 10 µM [1]: 79%
HDL-Cholesterol [% of Control] [2]: 91.9%
LDL-Cholesterol [% of Control] [2]: 53.7%
Serum Cholesterol [% of Control] [2]: 71.5%
Serum Triglycerides [% of Control] [2]: 77.0%
HDL/LDL [2]: 2.419
LDL-Cholesterol [2]: 40.8(±6.6) mg/dl
HDL-Cholesterol [2]: 98.7(±8.4) mg/dl
Serum Triglycerides [2]: 88.7(±7.3) mg/dl
Serum Cholesterol [2]: 140.9(±3.1) mg/dl
HMG-CoA Reductase Specific Acticity [% of Control] [3]: 50.6%
HMG-CoA Reductase Specific Acticity [3]: 550.2(±33.8)
% Suppression HMG-CoA Reductase [4]: 65%
Serum Cholesterol [5]: 214.9(±18.6 mg/dl
HDL-Cholesterol [% of Control] [5]: 105.3%
LDL-Cholesterol [% of Control] [5]: 44.8%
Serum Cholesterol [% of Control] [5]: 47.7%
Serum Triglycerides [% of Control] [5]: 70.3%
HDL/LDL [5]: 0.189
HDL-Cholesterol [5]: 34.4(±1.9) mg/dl
Serum Triglycerides [5]: 44.4(±1.3) mg/dl
LDL-Cholesterol [5]: 182.2(±8.2) mg/dl
